{"source": "patent US7211601B2", "about": "“Pharmaceutically active pyrrolidine derivatives” (Applied Research Systems Ars Holding N.V., priority 2000, dated 2007)", "key": {"[1]": {"molecular_target": "T1, hOT-R (Homo sapiens, UniProt P30559)", "T1 sequence (P30559 1-389)": "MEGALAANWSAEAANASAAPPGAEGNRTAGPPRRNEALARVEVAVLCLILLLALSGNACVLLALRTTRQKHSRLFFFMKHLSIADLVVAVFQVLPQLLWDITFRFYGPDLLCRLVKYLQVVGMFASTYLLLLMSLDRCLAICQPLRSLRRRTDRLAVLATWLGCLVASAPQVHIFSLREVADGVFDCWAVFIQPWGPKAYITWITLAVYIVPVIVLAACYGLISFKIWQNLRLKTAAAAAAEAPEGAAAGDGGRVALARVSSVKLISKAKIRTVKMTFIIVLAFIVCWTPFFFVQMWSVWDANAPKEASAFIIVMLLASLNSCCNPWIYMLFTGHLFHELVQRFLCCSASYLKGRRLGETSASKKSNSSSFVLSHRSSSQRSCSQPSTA", "assay": "In vitro binding assay (SPA), competition with [125I]-OVTA on membranes from HEK293EBNA cells expressing the hOT receptor", "parameters": "expressed in transfected cells; host or cells: HEK293EBNA", "conditions": "0.2 nM [125I]-OVTA, read-out: Binding affinity human OT-R IC50", "experimental": "a) In Vitro Binding Assay (SPA)\nMembranes from HEK293EBNA cells expressing the hOT receptor were resuspended in buffer containing 50 mM Tris-HCl, pH 7.4,5 mM MgCl2 and 0.1% BSA (w/v). The membranes (2–4 μg) were mixed with 0.1 mg wheat-germ aglutinin (WGA) SPA bead (type A) and increasing concentrations of [^125I]-OVTA (for saturation binding experiments) or 0.2 nM [^125I]-OVTA (for competition binding experiments). Non specific binding was deter-mined in the presence of 1 μM Oxytocin. The total assay volume was 100 μl. The plates were incubated at room temperature for 30 min and counted on a Mibrobeta plate counter. The competition binding data were analysed using the iterative, nonlinear, curve-fitting program, Prism.\nThe binding affinities to the oxytocin receptor of the pyrrolidine derivatives claimed in the formula I were assessed using the above described in vitro biological assay. The values refer to the binding capacity of the example compounds according to formula I to the Oxytocin receptor. From the values shown in Table 1 it can be derived that said test compounds according to formula I do show a significant binding to the Oxytocin receptor."}, "[2]": {"molecular_target": "T1, hOT-R", "assay": "Functional assay No. 1: inhibition of oxytocin-induced Ca2+-mobilization by FLIPR", "assay_type": "cell-based", "parameters": "expressed in transfected cells; host or cells: HEK cells (CHO cells also mentioned)", "conditions": "oxytocin-induced intracellular Ca2+ mobilization, read-out: Inhibition of Ca^2+ mobilization, hOT-R IC50", "experimental": "c) Functional Assay No. 1: Inhibition of Ca^2+-Mobilization by FLIPR\nPreparing the plates: FLIPR-plates were pre-coated with PLL 10 μg/ml+0.1% gelatine for 30 min up to 2 days at 37° C. (for HEK-cells). The cells were plated out into 96-well plates (60000 cells/well).\nLabelling with fluo-4: 50 μg fluo-4 were dissolved in 20 μl pluronic acid (20% in DMSO). The dissolved fluo-4 was then diluted in 10 ml DMEM-F12 medium without FCS. The medium was removed from the plates, followed by one wash with DMEM-F12 medium. Now, 100 μl of the DMEM-F12 medium containing fluo-4 were added and the cells incubated for 1–1.5 h (CHO-cells), and 1.5–2 h (HEK-cells).\nBuffer: 145 mM NaCl, 5 mM KCl, 1 mM MgCl2, 10 mM Hepes, 10 mM Glucose, EGTA. Adjust to pH 7.4.\nPreparation of agonists and antagonists: A minimum of 80 μl/well of agonists and anta-gonists (5×) in the above buffer (1×) were prepared (96-well plates).\nThe activities of the pyrrolidine derivatives according to formula I were assessed using the above described in vitro biological assay. The values refer to the capacity of the example compounds according to formula I to effectively antagonize oxytocin-induced intracellular Ca^2+-mobilization mediated by the Oxytocin receptor."}, "[3]": {"tested_on": "oxytocin-induced uterine contractions in the rat", "assay": "In vivo model for inhibition of uterine contractions (oxytocin-induced, anaesthetised DES-treated rats)", "conditions": "intravenous, PEG400/saline 50:50, 5 ml/kg infusion", "experimental": "e) In Vivo Model for Inhibition of Uterine Contractions\nNon-pregnant Charles River CD(SD) BR female rats (9–10 weeks old, 200–250 g) were treated at 18 and 24 hours before the experiment with 250 μg/kg, i.p. diethylstilbestrol (DES). For the assay, the animal was anaesthetised by urethane (1.75 g/kg, i.p.) and placed on an homeothermic operating table. The trachea was isolated and cannulated with a suitable polyethylene (PE) tubing. A midline incision at the hypogastrium level was made and one uterine horn exposed, its cephalic end cannulated with a PE240 tubing and, after filling the internal cavity with 0.2 ml of sterile physiological saline, connected to a “Gemini” amplifying/recording system via a P23ID Gould Statham pressure transducer. For the i.v. route of administration of the test compounds, one jugular vein was isolated and cannulated with a PE60 tubing connected to a butterfly needle to allow the administration by a dispensing syringe. In the case of intraduodenal administration of the test compounds, the duodenum was isolated and similarly cannulated through a small incision in its wall. One carotid artery was also isolated and cannulated with PE60 catheter and connected to a suitable syringe for blood sample collection (see below). After a stabilization period, the same dose of oxytocin was repeatedly injected intravenously at 30-min intervals. […] Further injections of the same dose of oxytocin were then made for a suitable time after treatment to assess inhibitory effects of the compounds under study. The contractile response of the uterus to oxytocin was quantified by measuring the intrauterine pressure and the number of contractions. The effect of the reference and test compounds were evaluated by comparing pre- and post-treatment pressure values. In addition, at 2, 30, 90 and 210 minutes after test compound administration, a 0.5-ml blood sample was withdrawn from the cannulated carotid artery of each experimental animal. Plasma was obtained by standard laboratory procedure and the resulting samples were stored at −20° C.\nThe activities of the pyrrolidine derivatives claimed in the formula I were assessed using the above described in vivo biological assay. The values refer to the capacity of the example compound according to formula I to effectively antagonize oxytocin-induced -uterine contractions in the rat."}}}
{"compound": "O=C(NCC(O)c1ccccc1)[C@@H]1C/C(=C/Cl)CN1C(=O)c1ccc(-c2ccccc2)cc1", "note": "(mixture of isomers) [(2S,4Z)-1-([1,1′-biphenyl]-4-ylcarbonyl)-4-(chloromethylene)-N-[(2RS)-2-hydroxy-2-phenylethyl]-2-pyrrolidinecarboxamide]", "values": [{"measurement": "IC50", "setting": "[1]", "value": 350, "unit": "nM"}]}
{"compound": "CON=C1C[C@@H](C(=O)NC[C@@H](O)c2ccccc2)N(C(=O)c2cccc(Oc3ccccc3)c2)C1", "note": "(racemic) [Example 278]", "values": [{"measurement": "IC50", "setting": "[1]", "value": 2300, "unit": "nM"}]}
{"compound": "CO/N=C1/C[C@@H](C(=O)NCCO)N(C(=O)c2ccc(-c3ccccc3)cc2)C1", "note": "[(2S,4Z)-1-([1,1′biphenyl]-4-ylcarbonyl)-N-(2-hydroxyethyl)-4-(methoxyimino)-2-pyrrolidinecarboxamide]", "values": [{"measurement": "IC50", "setting": "[2]", "value": 650, "unit": "nM"}]}
{"compound": "CO/N=C1/C[C@@H](c2nc3ccccc3[nH]2)N(C(=O)c2ccc(-c3ccccc3)cc2)C1", "note": "[(3Z,5S)-5-(1H-benzimidazol-2-yl)-1-([1,1′-biphenyl]-4-ylcarbonyl)-3-pyrrolidinone O-methyloxime]", "values": [{"measurement": "IC50", "setting": "[1]", "value": 630, "unit": "nM"}, {"measurement": "IC50", "setting": "[2]", "value": 400, "unit": "nM"}]}
{"compound": "CON=C1C[C@@H](C(=O)N2CCC(O)CC2)N(C(=O)c2ccc(-c3ccccc3C)cc2)C1", "note": "[Example 372, (3EZ,5S)-5-[(4-hydroxy-1-piperidinyl)carbonyl]-1-[(2′-methyl[1,1′-biphenyl]-4-yl)carbonyl]-3-pyrrolidinone O-methyloxime]", "values": [{"measurement": "IC50", "setting": "[1]", "value": 300, "unit": "nM"}]}
{"compound": "CON=C1C[C@@H](C(=O)NCCCO)N(C(=O)c2ccc(-c3ccccc3C)cc2)C1", "note": "[Example 377, (2S,4EZ)-N-(3-hydroxypropyl)-4-(methoxyimino)-1-[(2′-methyl[1,1′-biphenyl]-4-yl)carbonyl]-2-pyrrolidinecarboxamide]", "values": [{"measurement": "IC50", "setting": "[1]", "value": 370, "unit": "nM"}]}
{"compound": "CON=C1C[C@@H](C(=O)N[C@@H]2CCCC[C@H]2CO)N(C(=O)c2ccc(-c3ccccc3OC)cc2)C1", "note": "[Example 384, (2S,4EZ)-N-[(1R,2R)-2-(hydroxymethyl)cyclohexyl]-1-[(2′-methoxy[1,1′-biphenyl]-4-yl)carbonyl]-4-(methoxyimino)-2-pyrrolidinecarboxamide]", "values": [{"measurement": "IC50", "setting": "[1]", "value": 550, "unit": "nM"}]}
{"compound": "CON=C1C[C@@H](C(=O)NCCC(N)=O)N(C(=O)c2ccc(-c3ccccc3C)cc2C)C1", "note": "[Example 410, (2S,4EZ)-N-(3-amino-3-oxopropyl)-1-[(2′,3-dimethyl[1,1′-biphenyl]-4-yl)carbonyl]-4-(methoxyimino)-2-prrolidinecarboxamide]", "values": [{"measurement": "IC50", "setting": "[1]", "value": 540, "unit": "nM"}]}
{"compound": "CON=C1C[C@@H](C(=O)NCC[C@@H](O)c2ccccc2)N(C(=O)c2ccc(-c3ccccc3C)cc2)C1", "note": "[Example 433, (2S,4EZ)-N-[(3R)-3-hydroxy-3-phenylpropyl]-4-(methoxyimino)-1-[(2′-methyl[1,1′-biphenyl]-4-yl)carbonyl]-2-pyrrolidinecarboxamide]", "values": [{"measurement": "IC50", "setting": "[2]", "value": 320, "unit": "nM"}]}
{"compound": "CON=C1C[C@@H](C(=O)NC[C@@H](O)c2ccccc2)N(C(=O)c2ccc(-c3ccccc3Cl)cc2)C1", "note": "[Example 438, (2S,4EZ)-N-[(2S)-2-hydroxy-2-phenylethyl]-4-(methoxyimino)-1-{[2′-chloro[1,1′-biphenyl]-4-yl]carbonyl}-2-pyrrolidinecarboxamide]", "values": [{"measurement": "IC50", "setting": "[1]", "value": 170, "unit": "nM"}]}
{"compound": "CO/N=C1\\C[C@@H](C(=O)NC[C@@H](O)c2ccccc2)N(C(=O)c2ccc(-c3ccccc3C)cc2)C1", "note": "[drawing 17, (2S,4E)-N-[(2S)-2-hydroxy-2-phenylethyl]-4-(methoxyimino)-1-[(2′-methyl[1,1′-biphenyl]-4-yl)carbonyl]-2-pyrrolidinecarboxamide]", "values": [{"measurement": "IC50", "setting": "[1]", "value": 130, "unit": "nM"}, {"measurement": "IC50", "setting": "[2]", "value": 70, "unit": "nM"}]}
{"compound": "CO/N=C1/C[C@@H](C(=O)NC[C@@H](O)c2ccccc2)N(C(=O)c2ccc(-c3ccccc3C)cc2)C1", "note": "[drawing 18, (2S,4Z)-N-[(2S)-2-hydroxy-2-phenylethyl]-4-(methoxyimino)-1-[(2′-methyl[1,1′-biphenyl]-4-yl)carbonyl]-2-pyrrolidinecarboxamide]", "values": [{"measurement": "% Reduction of Utenne Contraction", "setting": "[3]; dose 0.3 mg/kg", "value": "−23.8 ± 4.1", "unit": "%"}, {"measurement": "% Reduction of Utenne Contraction", "setting": "[3]; dose 1 mg/kg", "value": "−27.6 ± 4.6", "unit": "%"}, {"measurement": "% Reduction of Utenne Contraction", "setting": "[3]; dose 3 mg/kg", "value": "−50.4 ± 5.8", "unit": "%"}, {"measurement": "% Reduction of Utenne Contraction", "setting": "[3]; dose 10 mg/kg", "value": "−65.6 ± 6.4", "unit": "%"}, {"measurement": "% Reduction of Utenne Contraction", "setting": "[3]; dose 30 mg/kg", "value": "−76.5 ± 4.24", "unit": "%"}, {"measurement": "IC50", "setting": "[1]", "value": 70, "unit": "nM"}, {"measurement": "IC50", "setting": "[2]", "value": 30, "unit": "nM"}]}
